Consider seven compounds from patent US4562151A, “Stabilization of L-phenylalanine ammonia-lyase enzyme” (Monsanto Company, priority 1983, dated 1985).

Test [1] deals with L-phenylalanine ammonia-lyase. In words: Relative effect of polyhydric alcohols on PAL activity, 19 hour incubation (Table III). It counts as biochemical, R. glutinis. The settings on record: for PAL Enzyme Activity: 240 mM cinnamate, 6.0 M ammonia, pH 11.5, 37° C., cells about 90 mg/ml, 19 hour incubation, control without alcohol 28; for Stabilizing effect on L-phenylalanine ammonia-lyase: monohydric and dihydric alcohols, concentration not given. As to the method: The reaction mixture consisted of 6.0 M ammonia, 240 mM cinnamate, R. glutinis cells and the above described polyhydric alcohol at pH 11.5 and 37° C. The final concentration of R. glutinis cells was approximately 90 mg/ml (wet weight). L-phenylalanine formation was determinted by high pressure liquid chromatography following a 19 hour incubation period.

In test [2] the test system is L-phenylalanine ammonia-lyase enzyme. Briefly: Effect of cinnamate concentration on PAL activity, R. glutinis cells, with or without glycerol (Table I). The class given is biochemical, Rhodotorula glutinis. The settings on record: for PAL Activity with glycerol: glycerol 2.3 M, ammonia 6.8 M, pH 11.2, 37° C., activity at 46.1 mM cinnamate taken as 100. The source says:
For conciseness, the following explanation and examples of the present invention are described with respect to L-phenylalanine ammonia-lyase enzyme from Rhodotorula glutinis cells (ATCC 15385) known to catalyze the reversible reaction between trans-cinnamate and an ammonia donor to form L-phenylalanine. To facilitate transport of substrate and product across the cell membrane about 3 to 5 microliters of polyethyleneglycol-p-isooctylphenylether per gram wet weight of cells is preferably added to the microbial cell suspension. It should be understood that the addition of polyethylene glycol-p-isooctylphenylether or other detergents which increase the permeability of cell membranes is not necessary for practice of the present invention.
The effects of increasing cinnamate concentrations on the reactivity of L-phenylalanine ammonia-lyase enzyme with and without the addition of glycerol are shown in Table I.
^(1) glycerol concentration = 2.3 M, ammonia concentration = 6.8 M; p
of the reaction mixture = 11.2; temperature = 37° C.; concentratio
of R. glutinis cells = 90 mg/ml. Enzyme activity at 46.1 mM cinnamate was
^(2) ammonia concentration = 6.8 M; pH of the reaction mixture = 11.2
temperature = 37° C.; concentration of R. glutinis cells = 90
mg/ml. Enzyme activity at 60.0 mM cinnamate was taken as 100.

For test [3] the test system is unchanged. Briefly: 24 hour time course of L-phenylalanine formation with and without glycerol (Figure). It counts as biochemical, R. glutinis. The conditions noted are these: 2.0 M glycerol, 200 mM cinnamate, 6.0 M ammonia, pH 11.5, 37° C., cells about 90 mg/ml. As to the method: Further experiments have shown that polyhydric alcohols, such as glycerol, have a substantial effect on the short-term activity of the L-phenylalanine ammonia-lyase enzyme in addition to a stabilizing effect on the long-term activity of the enzyme. The relative rates of L-phenylalanine formation from trans-cinnamate for a twenty-four hour period in the presence and absence of glycerol are plotted in the graph shown in the Figure. The reaction mixture consisted of 200 mM cinnamate, 6.0 M ammonia, 2.0 M glycerol and R. glutinis cells at pH 11.5 and 37° C. The final concentration of R. glutinis cells was approximately 90 mg/ml(wet weight). L-phenylalanine formation was determined by high pressure liquid chromatography. The amount of L-phenylalanine formed in twenty-four hours in the absence of glycerol was taken as 100.

With `OC[C@@H](O)[C@@H](O)[C@H](O)[C@H](O)CO` [D-mannitol], the “PAL Enzyme Activity” value in test [1] (alcohol 0.43 M) is recorded as 29.
For the compound `OCCO` [ethylene glycol], the “Stabilizing effect on L-phenylalanine ammonia-lyase” value in test [1] is “found not to generate the stabilizing effect”.
`OCC(O)CO` [glycerol]: the “PAL Activity with glycerol” value amounted to 100 in test [2] (46.1 mM cinnamate, R. glutinis cells 90 mg/ml); 100 in test [2] (140.0 mM cinnamate, cells 90 mg/ml); 75 in test [2] (185.0 mM cinnamate, cells 90 mg/ml); 59 in test [2] (250.0 mM cinnamate, cells 90 mg/ml). Besides, the “Activity of L-phenylalanine ammonia-lyase at 250 mM cinnamate relative to that measured at 50 mM” value in test [2] (250 mM versus 50 mM cinnamate, in presence of glycerol) is “about 60%”. For the same compound, the “Instantaneous rate of reaction (initial slope of curve) versus control without glycerol” value in test [3] is “higher instantaneous rate of reaction”. In addition, the “L-phenylalanine formed during the 12 to 24 hr period (long term stabilizing effect)” value in test [3] (without glycerol enzyme essentially inactivated after 12 hours) is on record as “substantial amount of L-phenylalanine formed during the 12 to 24 hr period”. In addition, the “PAL Enzyme Activity” value in test [1] (alcohol 0.72 M) was 100.
For `CCCCO` [butanol], the “Stabilizing effect on L-phenylalanine ammonia-lyase” value in test [1] is listed as “found not to generate the stabilizing effect”.
`OC[C@@H](O)[C@@H](O)[C@H](O)[C@@H](O)CO` [D-sorbitol]: in test [1] (alcohol 0.43 M), the “PAL Enzyme Activity” value is given as 74.
As for `CO` [methanol], the “Stabilizing effect on L-phenylalanine ammonia-lyase” value in test [1] is on record as “found not to generate the stabilizing effect”.
Same read-out and setting: the value for `CCO` [ethanol] was “found not to generate the stabilizing effect”.
